Measured values from paper PMC8151276, “An Integrated Approach toward NanoBRET Tracers for Analysis of GPCR Ligand Engagement” (Molecules, 2021).

Assays:
Assay type in all cases: binding
OPRL1 = target: T1, OPRL1 (Homo sapiens, UniProt P41146); experiment: NanoBRET screen HiBiT-OPRL1 in HEK293
T1 construct: purchased Promega (in-house HiBiT-GPCR construct library, NanoBRET)
Protocol: (§1) Each tracer candidate was screened across the entire library of HiBiT-GPCR constructs using NanoBRET as the detection modality. As depicted in Figure 4A, the specificity of interactions was evaluated through decrease in BRET due to competitive displacement of a bound tracer by excess parental compound. Each tracer was analyzed for binding to each HiBiT-GPCR fusion in the absence and in the presence of competing parental compound. Briefly, HEK293 cells were transfected with HiBiT-GPCR constructs diluted into promoterless DNA to reduce expression and maximize translocation to the cell surface. Each tracer candidate was then screened at concentrations of 1 μM and 0.1 μM across cells expressing these fusions. Cells were treated for 1.5 h with tracer either alone or in the presence of 20 μM competing parental compound (i.e., control). BRET was measured upon addition of purified LgBiT and subsequent complementation with HiBiT genetically fused to a GPCR. The specificity of interactions was assessed through a decrease in BRET signal due to competitive displacement of the bound tracer. To further gauge the robustness of these interactions, the fold response over the control (i.e., BRETtracer/BRETcontrol) was calculated. We chose a 1.5-fold response, which translates to ≥7-fold signal over noise as the minimal threshold required to score an interaction as positive. […]. Below we highlight the screening results obtained for our exemplary fluorescent tracers based on Clozapine, Amitriptyline and AZD1283.
(§2) HiBiT-GPCR DNA constructs were diluted in 10 mM Tris pH 8 to a final concentration of 0.01 μg/μL, arrayed in 96-well plates and stored at −20 °C. For transfection, HEK293 cells were suspended in Opti-MEM (without phenol red) supplemented with 2% fetal bovine serum (Seradigm) and 100 units/mL penicillin–streptomycin (Gibco) at a final concentration of 220,000 cells/mL and dispensed into white 96-well plates at 90 μL/well. Subsequent transfections and screens were carried using an Agilent Bravo Automated Liquid Handling Platform. First, the 96-well HiBiT DNA arrays were diluted 25-fold in Opti-MEM (without serum or phenol red) to a final concentration of 0.0004 μg/μL and 20 μL of the diluted DNAs were transferred into new 96-well plates. Next, promoterless carrier DNA (1 μg/μL) was diluted 25-fold (0.04 μg/μL) and then dispensed into the diluted arrays at 20 μL/well. Following brief mixing, Viafect transfection reagent (Promega) diluted 16-fold into Opti-MEM was dispensed into the plates at 40 μL/well. After mixing by pipetting, plates were incubated for 10 min on the pipetting station deck. The DNA-transfection reagent complexes were then added to plates containing cells. To facilitate the screen, 10 μL of DNA-transfection reagent complexes were added in duplicates to the top 4 and bottom 4 rows, resulting in two identical 48-well arrays per plate. Plates with transfected cells were incubated for 18–20 h at 37 °C/5% CO2. A screen of each tracer across the entire library using two different concentrations requires duplicate plates of transfected cells. Depending on the number of tracers being screened, transfections can be scaled up using the same ratios. The next day, for each tracer, four 20× screening solutions in tracer dilution buffer (Promega) were prepared: two duplicates at final concentration of 20 μM and two duplicates at a final concentration of 2 μM. A competing unmodified compound was added to one of each duplicate at a final concentration of 400 μM. The four resulting solutions were diluted 4-fold in Opti-MEM without serum or phenol red to generate 5× solutions (5 µM and 0.5 µM tracer +/− 100 μM competing compound). To screen the library, a BioTek MultiFlo FX liquid dispenser was used to dispense 22.5 µL of tracer solution to the top 4 rows and 22.5 µL tracer + competing compound solution to the 4 bottom rows. Plates were briefly mixed on an orbital shaker and incubated for 1.5 h at room temperature. […]

RXFP4 = target: T2, RXFP4 (Homo sapiens, UniProt Q8TDU9); experiment: NanoBRET screen HiBiT-RXFP4 in HEK293
T2 construct: purchased Promega (in-house HiBiT-GPCR construct library, NanoBRET)
Protocol: as §1, §2

CNR1 = target: T3, CNR1 (Homo sapiens, UniProt P21554); experiment: NanoBRET screen HiBiT-CNR1 in HEK293
T3 construct: purchased Promega (in-house HiBiT-GPCR construct library, NanoBRET)
Protocol: as §1, §2

T1 sequence (P41146 whole entry): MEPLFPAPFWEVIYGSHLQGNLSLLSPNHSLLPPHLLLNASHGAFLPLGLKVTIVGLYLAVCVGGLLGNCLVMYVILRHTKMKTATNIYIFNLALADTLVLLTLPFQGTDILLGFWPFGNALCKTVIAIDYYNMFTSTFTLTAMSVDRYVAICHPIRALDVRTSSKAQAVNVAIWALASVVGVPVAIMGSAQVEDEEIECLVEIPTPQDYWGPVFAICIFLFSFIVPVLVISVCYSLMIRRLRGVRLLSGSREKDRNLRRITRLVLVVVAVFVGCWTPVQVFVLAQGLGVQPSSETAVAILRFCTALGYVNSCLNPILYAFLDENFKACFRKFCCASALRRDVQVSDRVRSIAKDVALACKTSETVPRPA
T2 sequence (Q8TDU9 whole entry): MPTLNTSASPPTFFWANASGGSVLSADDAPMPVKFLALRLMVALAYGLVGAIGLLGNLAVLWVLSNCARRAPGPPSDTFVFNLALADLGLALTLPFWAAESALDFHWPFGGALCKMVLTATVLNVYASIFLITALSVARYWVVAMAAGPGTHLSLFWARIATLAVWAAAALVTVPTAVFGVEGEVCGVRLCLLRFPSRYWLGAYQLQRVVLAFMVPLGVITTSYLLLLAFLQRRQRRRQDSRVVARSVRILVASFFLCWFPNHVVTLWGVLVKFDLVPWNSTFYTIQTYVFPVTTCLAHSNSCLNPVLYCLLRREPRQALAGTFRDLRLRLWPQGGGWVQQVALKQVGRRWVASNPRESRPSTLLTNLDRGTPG
T3 sequence (P21554 whole entry): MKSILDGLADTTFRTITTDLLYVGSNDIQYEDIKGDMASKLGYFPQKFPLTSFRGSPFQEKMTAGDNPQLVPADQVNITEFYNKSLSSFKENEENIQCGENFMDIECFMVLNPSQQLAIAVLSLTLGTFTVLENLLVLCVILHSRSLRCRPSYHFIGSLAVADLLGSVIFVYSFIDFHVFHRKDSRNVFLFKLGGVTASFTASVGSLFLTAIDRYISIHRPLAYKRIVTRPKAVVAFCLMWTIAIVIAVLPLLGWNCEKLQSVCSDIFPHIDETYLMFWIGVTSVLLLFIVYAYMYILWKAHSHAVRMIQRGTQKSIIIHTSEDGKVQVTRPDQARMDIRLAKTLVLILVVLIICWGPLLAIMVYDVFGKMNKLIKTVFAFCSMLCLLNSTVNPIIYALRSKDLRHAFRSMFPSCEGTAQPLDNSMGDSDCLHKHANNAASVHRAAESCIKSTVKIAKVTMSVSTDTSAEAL

Row | SMILES | NanoBRET Fold Response (OPRL1; OPRL1, tracer 0.1μM) | NanoBRET Fold Response (OPRL1; OPRL1, tracer 1μM) | NanoBRET Fold Response (RXFP4; RXFP4, tracer 0.1μM) | NanoBRET Fold Response (RXFP4; RXFP4, tracer 1μM) | NanoBRET Fold Response (CNR1; CNR1, tracer 0.1μM) | NanoBRET Fold Response (CNR1; CNR1, tracer 1μM) | other results
1 | COc1ccc2c(n1)c(CCNC(C)=O)cn2CCNC(=O)CCc1ccc2n1[B-](F)(F)[N+]1=C(c3ccc[nH]3)C=CC1=C2 [Azamelatonin-1-NB590] | – | – | – | – | – | – | NanoBRET Fold Response (OPRL1; 0.1μM tracer): 1.14; NanoBRET Fold Response (OPRL1; 1μM tracer): 1.14; NanoBRET Fold Response (RXFP4; 0.1μM tracer): 0.73; NanoBRET Fold Response (RXFP4; 1μM tracer): 1.04; NanoBRET Fold Response (CNR1; 0.1μM tracer): 1.01; NanoBRET Fold Response (CNR1; 1μM tracer): 0.95
2 | CC(C)N(CC[C@H](c1ccccc1)c1cc(CCNC(=O)c2ccc(CNC(=O)CCc3ccc4n3[B-](F)(F)[N+]3=C(c5ccc[nH]5)C=CC3=C4)cc2)ccc1O)C(C)C [Tolterodine-BZ-NB590] | 0.92 | 0.88 | 1.08 | 0.98 | 1.01 | 0.13 | –
3 | O=C(CCc1ccc2n1[B-](F)(F)[N+]1=C(c3ccc[nH]3)C=CC1=C2)NCCOCCOCCNC(=O)OCCOCCN1CCN(C2=Nc3ccccc3Sc3ccccc32)CC1 [Quetiapine-a-2-NB590] | 0.90 | 1.00 | 1.02 | 0.68 | 1.00 | 1.00 | –
4 | Cc1cc2c(s1)Nc1ccccc1N=C2N1CCN(CCCNC(=O)CCOCCOCCOCCOCCNC(=O)CCc2ccc3n2[B-](F)(F)[N+]2=C(c4ccc[nH]4)C=CC2=C3)CC1 [Olanzapine-a-2-NB590] | 1.02 | 0.47 | 0.95 | 0.91 | 0.99 | 1.05 | –
5 | O=C(CCc1ccc2n1[B-](F)(F)[N+]1=C(c3ccc[nH]3)C=CC1=C2)NCc1ccc(C(=O)NCCOCCOCCNCC(O)COc2cccc3ccccc23)cc1 (centres unmarked) [Propranolol-3-NB590] | – | – | – | – | – | – | NanoBRET Fold Response (OPRL1; OPRL1, 0.1μM): 0.96; NanoBRET Fold Response (OPRL1; OPRL1, 1μM): 1.01; NanoBRET Fold Response (RXFP4; RXFP4, 0.1μM): 1.02; NanoBRET Fold Response (RXFP4; RXFP4, 1μM): 1.05; NanoBRET Fold Response (CNR1; CNR1, 0.1μM): 0.99; NanoBRET Fold Response (CNR1; CNR1, 1μM): 1.00
6 | CN1CCN(C2=Nc3cc(Cl)ccc3N(CC(=O)NCCOCCOCCOCCOCCNC(=O)CCc3ccc4n3[B-](F)(F)[N+]3=C(c5ccc[nH]5)C=CC3=C4)c3ccccc32)CC1 [Clozapine-c-2-NB590] | – | – | – | – | – | – | NanoBRET Fold Response (OPRL1; OPRL1, 0.1μM tracer): 0.98; NanoBRET Fold Response (OPRL1; OPRL1, 1μM tracer): 0.99; NanoBRET Fold Response (RXFP4; RXFP4, 0.1μM tracer): 0.96; NanoBRET Fold Response (RXFP4; RXFP4, 1μM tracer): 1.04; NanoBRET Fold Response (CNR1; CNR1, 0.1μM tracer): 0.99; NanoBRET Fold Response (CNR1; CNR1, 1μM tracer): 1.05
7 | O=C(CCc1ccc2n1[B-](F)(F)[N+]1=C(c3ccc[nH]3)C=CC1=C2)NCc1ccc(C(=O)NCCOCCC(=O)N[C@@H]2CC[C@@]3(O)[C@H]4Cc5ccc(O)c6c5[C@@]3(CCN4CC3CC3)[C@H]2O6)cc1 [Naltrexone-3-NB590] | 1.54 | 0.99 | 0.98 | 0.98 | 0.96 | 0.95 | –
8 | CC(C)N(CC[C@H](c1ccccc1)c1cc(CCNC(=O)CCOCCOCCOCCOCCNC(=O)CCc2ccc3n2[B-](F)(F)[N+]2=C(c4ccc[nH]4)C=CC2=C3)ccc1O)C(C)C [Tolterodine-2-NB590] | 1.07 | 0.90 | 0.96 | 1.06 | 1.03 | 1.14 | –
9 | Cc1nc2n(c(=O)c1CCN1CCC(c3noc4cc(F)ccc34)CC1)CCCC2OC(=O)NCCOCCOCCOCCOCCNC(=O)CCc1ccc2n1[B-](F)(F)[N+]1=C(c3ccc[nH]3)C=CC1=C2 (centres unmarked) [Risperidone-2-NB590] | 0.97 | 0.96 | 0.96 | 1.10 | 1.00 | 1.02 | –
10 | O=C(CCOCCOCCOCCOCCNC(=O)CCc1ccc2n1[B-](F)(F)[N+]1=C(c3ccc[nH]3)C=CC1=C2)NCCCN1CCN(C2=Nc3cc(Cl)ccc3Nc3ccccc32)CC1 [Clozapine-a-2-NB590] | – | – | – | – | – | – | NanoBRET Fold Response (OPRL1; OPRL1, 0.1μM tracer): 0.99; NanoBRET Fold Response (OPRL1; OPRL1, 1μM tracer): 1.05; NanoBRET Fold Response (RXFP4; RXFP4, 0.1μM tracer): 1.10; NanoBRET Fold Response (RXFP4; RXFP4, 1μM tracer): 1.10; NanoBRET Fold Response (CNR1; CNR1, 0.1μM tracer): 1.02; NanoBRET Fold Response (CNR1; CNR1, 1μM tracer): 1.04
11 | COc1ccc2[nH]c(-c3ccc(CNC(=O)CCOCCOCCOCCOCCNC(=O)CCc4ccc5n4[B-](F)(F)[N+]4=C(c6ccc[nH]6)C=CC4=C5)cc3)c(CCNC(C)=O)c2n1 [AzomelatoninICO9-2-NB590] | – | – | – | – | – | – | NanoBRET Fold Response (OPRL1; 0.1μM tracer): 0.71; NanoBRET Fold Response (OPRL1; 1μM tracer): 1.05; NanoBRET Fold Response (RXFP4; 0.1μM tracer): 0.94; NanoBRET Fold Response (RXFP4; 1μM tracer): 0.96; NanoBRET Fold Response (CNR1; 0.1μM tracer): 0.99; NanoBRET Fold Response (CNR1; 1μM tracer): 1.02
12 | CN1CCN(C2=Nc3cc(Cl)ccc3Nc3ccc(CNC(=O)CCOCCOCCOCCOCCNC(=O)CCc4ccc5n4[B-](F)(F)[N+]4=C(c6ccc[nH]6)C=CC4=C5)cc32)CC1 [Clozapine-b-2-NB590] | – | – | – | – | – | – | NanoBRET Fold Response (OPRL1; OPRL1, 0.1μM tracer): 1.00; NanoBRET Fold Response (OPRL1; OPRL1, 1μM tracer): 1.01; NanoBRET Fold Response (RXFP4; RXFP4, 0.1μM tracer): 0.97; NanoBRET Fold Response (RXFP4; RXFP4, 1μM tracer): 1.01; NanoBRET Fold Response (CNR1; CNR1, 0.1μM tracer): 1.01; NanoBRET Fold Response (CNR1; CNR1, 1μM tracer): 1.03
13 | COc1ccccc1N1CCN(CCCCN2C(=O)c3ccc(CNC(=O)CCOCCNC(=O)c4ccc(CNC(=O)CCc5ccc6n5[B-](F)(F)[N+]5=C(c7ccc[nH]7)C=CC5=C6)cc4)cc3C2=O)CC1 [NAN-190-3-NB590] | 1.08 | 1.41 | 0.93 | 0.90 | 1.10 | 1.01 | –
14 | CN(CCC=C1c2ccccc2CCc2ccccc21)C(=O)CCOCCOCCOCCOCCNC(=O)CCc1ccc2n1[B-](F)(F)[N+]1=C(c3ccc[nH]3)C=CC1=C2 [Amitriptyline-e-2-NB590] | – | – | – | – | – | – | NanoBRET Fold Response (OPRL1; tracer at 1μM): 1.10
15 | CN(C)CCC=C1c2ccccc2CCc2ccc(C(=O)NCCNC(=O)CCOCCOCCOCCOCCNC(=O)CCc3ccc4n3[B-](F)(F)[N+]3=C(c5ccc[nH]5)C=CC3=C4)cc21 [Amitriptyline-a-2-NB590] | – | – | – | – | – | – | NanoBRET Fold Response (OPRL1; tracer at 0.1μM): 1.01; NanoBRET Fold Response (OPRL1; tracer at 1μM): 0.95; NanoBRET Fold Response (RXFP4; tracer at 0.1μM): 1.05; NanoBRET Fold Response (RXFP4; tracer at 1μM): 1.03
